The record followed here is patent US9073854B2, “Aromatic sulfonium salt compound” (ADEKA CORPORATION, priority 2009, dated 2015).

This series in a line: Solubility in polyvinylphenol/tetramethylammonium hydroxide (TMAH) aqueous solution. The format is physicochemical. The settings on record: mass ratio of compound to polyvinylphenol of the saturated solution; polyvinylphenol in 3% TMAH aqueous solution. As to the method:
In a screw-top tube were put 0.36 g of polyvinylphenol (S-2P from Maruzen Petrochemical Co., Ltd.; Mw: 5800) and 10.00 g of a 3% TMAH aqueous solution and heated to dissolve. A 2.00 g portion of the resulting solution was put in another screw-top tube, and a small amount of each of compound Nos. 1 and 5 and comparative compound No. 1 (intermediate No. 7 obtained in step 1 of Example 1-7) was added thereto and heated. A visual check was made to see whether the compound dissolved. This operation was repeated until saturation. The saturated solution was allowed to stand one day to make sure that no solid precipitated. The mass ratio of each compound to the polyvinylphenol of the saturated solution was taken as a parameter of solubility.
For the compound `Cn1c2ccccc2c(=O)c2cc([S+](c3ccc(F)cc3)c3ccc(F)cc3)ccc21` [Comp. Compound No. 1, reference compound], the Solubility (%) was below 1%. In the case of `Cn1c2ccccc2c(=O)c2cc([S+](c3ccc(O)cc3)c3ccc(O)cc3)ccc21` [Compound No. 1], the “Solubility (%)” value is listed as 70%. As to `O=c1c2ccccc2n(Cc2cccc(O)c2)c2ccc([S+](c3ccc(F)cc3)c3ccc(F)cc3)cc12` [Compound No. 5], the “Solubility (%)” value was 29%.
